According to US20100166603A1, “Powder Sterilization” (NOXILIZER, Inc., priority 2008, published 2010):
Several values for one entry are separate records, joined by “and”; a condition that tells them apart may be missing. Identical values can stand only once.

Columns and labels:
[1] = tested on: spores in PVP/spore mixture powder; test: NO2 gas sterilization of tumbled PVP/spore mixture powder in humid air, CFU recovery; format: cell-based; details: for spore concentration after treatment: two vials present; for CFU per 100 mg: single plates
Method: A test to determine whether 100 mg of (PVP) and spore mixture powder could be sterilized using an NO2 gas sterilization process that incorporates a powder tumbling system. The NO2 used was a 10% NO2/90% N2 mixture.
A 2.2 cm diameter circular Tyvek® pieces was likewise cut and the Tyvek® piece was placed between the cap and the silicone septum ring forming a partially breathable cap on the vials, while maintaining the self-healing characteristic of the silicone septum.
The colony forming units (CFU's) recovered from each spore mixture were counted. Multiple plates and dilutions from a given biological indicator (BI) were averaged.
Vials were placed into a cylindrical mesh container. The container was in turn placed into a rock polisher that was configured to spin the container and the vials therein.
The second vial contained 100 mg of PVP/spore mixture with 10 3 mm glass beads (weight of the beads excluded). […]
After the runs, the samples were processed and CFUs were counted after approximately 48 hours of incubation at 35° C.-39° C.

spore population = test: NO2 gas exposure of powder under dry conditions (dry air diluent), spore inactivation; format: cell-based; details: 10 mg/l NO2 gas, exposure 60 to 600 minutes
Excerpt: FIG. 10 is a log-linear scale of population against exposure time for an experiment carried out with a dry air diluent.

[2] = Run 2 NX1080423A, 3.0 mm, 5 beads, 0.4% NO2, humid air to 25.13 in Hg, 40 min dwell
[3] = Run 2 NX1080423A, 3.0 mm, 10 beads, 0.4% NO2, humid air to 25.13 in Hg, 40 min dwell
[4] = Run 4 NX1080424B, 3.0 mm beads, Table 4 cycle, humid air per Table 5
[5] = Run 5 NX1080429A, 3.0 mm beads, Table 4 cycle, humid air per Table 5
[6] = Run 6 NX1080429B, 3.0 mm beads, Table 4 cycle, humid air per Table 5
[7] = Run 7 NX1080429C, 3.0 mm beads, Table 4 cycle, humid air per Table 5

SMILES: [O]N=O [NO2, nitrogen dioxide]
- final spore concentration ([1]; 0.5 mm bead samples, three pulses, 21 in Hg of humidity added): 4.0×10^−1 spores/100 mg
- spore concentration after treatment ([1]; 0.5 mm bead samples, 17 in Hg of humidity added): 1.3×10^2 spores/100 mg
- spore concentration after treatment ([1]; 0.5 mm bead samples, 21 in Hg of humidity added): 1.8×10^3 spores/100 mg
- spore concentration after treatment ([1]; 0.5 mm bead samples, 23 in Hg of humidity added): 3.5×10^2 spores/100 mg
- Average per 100 mg ([1]; Run 1 NX1080422A, 0.5 mm beads, first vial, 0.4% NO2, humid air to 25.13 in Hg, 40 min dwell): 2.4 × 10^4 per 100 mg
- Average per 100 mg ([1]; Run 1 NX1080422A, 0.5 mm beads, second vial, 0.4% NO2, humid air to 25.13 in Hg, 40 min dwell): 6.2 × 10^4 per 100 mg
- Average per 100 mg [1, 2]: >2.0 × 10^5 per 100 mg
- CFU per 100 mg [1, 2]: >2.0 × 10^5 CFU per 100 mg
- Average per 100 mg [1, 3]: >2.0 × 10^5 per 100 mg
- CFU per 100 mg [1, 3]: >2.0 × 10^5 CFU per 100 mg
- Average per 100 mg ([1]; Run 3 NX1080424A, 0.5 mm beads, pre-humidity 10 min, 0.2%+0.2% NO2 with humid air, 10 min dwell, cycle repeats 2): 3.4 × 10^3 per 100 mg
- Average per 100 mg ([1]; Run 3 NX1080424A, 3.0 mm beads, pre-humidity 10 min, 0.2%+0.2% NO2 with humid air, 10 min dwell, cycle repeats 2): 8.6 × 10^4 per 100 mg
- Average per 100 mg ([1]; Run 4 NX1080424B, 0.5 mm beads, Table 4 cycle: pre-NO2 0.4% 10 min, 0.2%+0.2% NO2, humid air per Table 5, 10 min dwell): 1.8 × 10^3 per 100 mg
- Average per 100 mg [1, 4]: 4.0 × 10^4 per 100 mg
- CFU per 100 mg [1, 4]: 4.0 × 10^4 CFU per 100 mg and 3.2 × 10^4 CFU per 100 mg and 5.4 × 10^4 CFU per 100 mg and 3.5 × 10^5 CFU per 100 mg
- Average per 100 mg ([1]; Run 5 NX1080429A, 0.5 mm beads, Table 4 cycle, humid air per Table 5): 3.5 × 10^2 per 100 mg
- Average per 100 mg [1, 5]: 3.6 × 10^4 per 100 mg
- CFU per 100 mg [1, 5]: 3.5 × 10^4 CFU per 100 mg and 3.6 × 10^4 CFU per 100 mg
- Average per 100 mg ([1]; Run 6 NX1080429B, 0.5 mm beads, Table 4 cycle, humid air per Table 5): 1.1 × 10^2 per 100 mg
- Average per 100 mg [1, 6]: 1.9 × 10^4 per 100 mg
- CFU per 100 mg [1, 6]: 1.6 × 10^4 CFU per 100 mg and 1.8 × 10^4 CFU per 100 mg and 2.7 × 10^4 CFU per 100 mg
- Average per 100 mg ([1]; Run 7 NX1080429C, 0.5 mm beads, Table 4 cycle, humid air per Table 5): 1.3 × 10^2 per 100 mg
- Average per 100 mg [1, 7]: 2.3 × 10^4 per 100 mg
- CFU per 100 mg [1, 7]: 2.1 × 10^4 CFU per 100 mg and 2.0 × 10^4 CFU per 100 mg and 2.9 × 10^4 CFU per 100 mg and 2.3 × 10^4 CFU per 100 mg
- Average per 100 mg ([1]; Run 8 NX1080501B, 0.5 mm beads, one vial, Table 4 cycle, humid air and repeats per Table 5): 1.8 × 10^2 per 100 mg
- Average per 100 mg ([1]; Run 9 NX1080501C, 0.5 mm beads, one vial, Table 4 cycle, humid air and repeats per Table 5): 3.3 × 10^1 per 100 mg
- Average per 100 mg ([1]; Run 10 NX1080501D, 0.5 mm beads, one vial, Table 4 cycle, humid air and repeats per Table 5): 5.0 × 10^0 per 100 mg
- Average per 100 mg ([1]; Run 11 NX1080501E, 0.5 mm beads, one vial, Table 4 cycle, humid air and repeats per Table 5): 1.3 × 10^2 per 100 mg
- Average per 100 mg ([1]; Run 12 NX1080505A, 0.5 mm beads, one vial, Table 4 cycle, humid air and repeats per Table 5): 2.2 × 10^1 per 100 mg
- Average per 100 mg ([1]; Run 13 NX1080505B, 0.5 mm beads, one vial, Table 4 cycle, humid air and repeats per Table 5): 2.0 × 10^0 per 100 mg
- Average per 100 mg ([1]; Run 14 NX1080505C, 0.5 mm beads, one vial, Table 4 cycle, humid air and repeats per Table 5): 4.0 × 10^−1 per 100 mg
- Average per 100 mg ([1]; Run 15 NX1080505D, 0.5 mm beads, one vial, Table 4 cycle, humid air and repeats per Table 5): 8.0 × 10^0 per 100 mg
- lethality (spore population): acceptable lethality
